In the test the test system is Mycobacterium tuberculosis. In words: Antibacterial activity against 2-(quinolin-4-yloxy)acetamide resistant Mycobacterium tuberculosis harboring qcrB gene T313A mutant. The test is classed as functional.

For orientation: MIC means the lowest concentration that inhibits growth of the organism. Lower therefore signals greater potency.

The structures appear in SMILES notation. ≈ marks a conversion by molar mass, not a printed value.

Compound `CCc1ccc(NCCCOc2cc(C)nc3ccc(Br)cc23)cc1` came in with an MIC of 3.13 µM (≈ 1.25 µg/mL).

These data come from ChEMBL document CHEMBL6078678, “Unveiling the Antimycobacterial Potential of Novel 4-Alkoxyquinolines: Insights into Selectivity, Mechanism of Action, and In Vivo Exposure” (J Med Chem, 2024).
